Measured values: the NIST ThermoML archive (doi:10.1016/j.jct.2013.09.039)

Test: xn = mol fraction of the nth substance listed
Conditions: Liquid, Vibrating tube method

Cc1ccc(C)cc1 [1,4-dimethylbenzene] + CCCCCCCC
mass density [kg/m3]
Conditions	100 kPa	5000 kPa	10000 kPa	20000 kPa	30000 kPa	40000 kPa
288.15 K, x2 = 0.0509	854.9	858.3	861.8	868.3	874.2	880
288.15 K, x2 = 0.0993	845.1	849	852.5	858.8	864.8	870.6
288.15 K, x2 = 0.1981	826.4	830.2	833.7	840.4	846.4	852.2
288.15 K, x2 = 0.2961	808.8	812.6	816.2	822.9	829	834.9
288.15 K, x2 = 0.3989	791.4	795.2	798.9	805.6	811.9	817.8
288.15 K, x2 = 0.4891	776.6	780.8	784.6	791.3	797.8	803.8
288.15 K, x2 = 0.5473	768.3	772	775.7	782.7	789.1	795.1
288.15 K, x2 = 0.6039	760.1	763.5	767.2	774.2	780.5	786.5
288.15 K, x2 = 0.8031	731.5	735.9	739.8	746.9	753.3	759.8
288.15 K, x2 = 0.8963	719.7	723.8	727.5	734.8	741.1	747.2
288.15 K, x2 = 0.946	712.7	716.7	720.8	727.6	734.2	740.3
298.15 K, x2 = 0.0509	846.1	850.4	853.4	860.3	866.3	872.5
298.15 K, x2 = 0.0993	836.5	840.8	844	850.7	857.1	863.1
298.15 K, x2 = 0.1981	817.9	822.3	825.5	832.4	838.9	844.9
298.15 K, x2 = 0.2961	800.2	804.6	808	815	821.5	827.5
298.15 K, x2 = 0.3989	782.9	787.4	790.9	798	804.5	810.7
298.15 K, x2 = 0.4891	768.7	773.3	776.6	784	790.7	796.8
298.15 K, x2 = 0.5473	760.7	764.4	768	775.2	781.9	787.9
298.15 K, x2 = 0.6039	752.1	755.9	759.5	766.8	773.3	779.4
298.15 K, x2 = 0.8031	723.7	728.5	732.1	739.3	746.2	752.5
298.15 K, x2 = 0.8963	712.2	716.5	720	727.3	734.1	740.5
298.15 K, x2 = 0.946	704.7	709.5	713.2	720.7	727.5	733.8
308.15 K, x2 = 0.0509	837.4	841.4	845.2	852.1	858.9	865
308.15 K, x2 = 0.0993	828	832	835.8	842.9	849.6	855.8
308.15 K, x2 = 0.1981	809.3	813.5	817.5	824.5	831.4	837.7
308.15 K, x2 = 0.2961	791.6	796	800	807.3	814.2	820.5
308.15 K, x2 = 0.3989	774.4	778.8	783	790.3	797.2	803.7
308.15 K, x2 = 0.4891	760.3	764.7	768.9	776.4	783.4	789.7
308.15 K, x2 = 0.5473	752.4	755.9	760.1	767.7	774.6	781.2
308.15 K, x2 = 0.6039	743.9	747.2	751.6	759.3	766.3	772.7
308.15 K, x2 = 0.8031	716.1	719.9	724.2	732.1	739.2	745.9
308.15 K, x2 = 0.8963	704.2	708.1	712.4	720.1	727.4	734
308.15 K, x2 = 0.946	697.5	701.3	705.5	713.4	720.7	727.3

Cc1ccc(C)cc1 [1,4-dimethylbenzene] + COC(=O)OC
mass density [kg/m3]
Conditions	x2 = 0.0432	x2 = 0.195	x2 = 0.3968	x2 = 0.4933	x2 = 0.5296	x2 = 0.5993	x2 = 0.7034	x2 = 0.8023	x2 = 0.8921	x2 = 0.9478
288.15 K, 100 kPa	871.8	894.2	924.2	944.9	953.3	968.4	992.3	1010.6	1038.1	1052.9
288.15 K, 5000 kPa	875.5	897.8	931.9	950.4	957.3	972.4	996.2	–	1042.5	1057.2
288.15 K, 10000 kPa	879.1	901.3	935.7	954.1	961.2	976.3	1000.3	–	1046.6	1061.4
288.15 K, 20000 kPa	885.4	907.8	942.5	961.4	968.3	983.7	1007.8	–	1054.5	1069.4
288.15 K, 30000 kPa	891.3	914	949	967.9	974.9	990.5	1014.7	–	1061.5	1076.7
288.15 K, 40000 kPa	897.1	920.1	955.3	974.3	980.9	997.1	1021.4	–	1068.7	1083.8
298.15 K, 100 kPa	863	884.5	917.8	935.8	942.5	957.3	980.5	998.4	1025.5	1040
298.15 K, 5000 kPa	867.3	888.3	922.5	940.6	947.1	962	985.4	1003.4	1030.6	1044.9
298.15 K, 10000 kPa	870.4	892.1	925.8	944	950.7	965.7	989.1	–	1034.7	1049
298.15 K, 20000 kPa	877.1	899.2	933.2	951.6	958.2	973.4	997	–	1042.9	1057.5
298.15 K, 30000 kPa	883.4	905.5	939.9	958.7	965.4	980.5	1004.4	1022.7	1050.6	1065
298.15 K, 40000 kPa	889.1	911.7	946.5	965.1	972	987.3	1011.2	1030.1	1057.9	1072.7
308.15 K, 100 kPa	854.3	875.2	907.6	925.2	931.7	946.3	969	–	1013.1	1027.2
308.15 K, 5000 kPa	858.1	879.3	912.1	929.7	936.2	950.8	973.7	–	1018	1032.1
308.15 K, 10000 kPa	862	883.3	916.2	934.1	940.4	955.2	978.2	–	1022.7	1036.8
308.15 K, 20000 kPa	869.1	890.7	924	941.8	948.4	958.3	986.4	1004.4	1031.5	1045.7
308.15 K, 30000 kPa	875.7	897.5	931.2	949.4	956	970.9	994.2	1012.2	1039.7	1054
308.15 K, 40000 kPa	881.7	904	937.9	956.3	963	978.1	1001.5	1019.8	1047.4	1061.7
